Key:
hCA I = molecular target: T1, hCA I (Homo sapiens, UniProt P00915); assay: stopped-flow CO2 hydrase assay, hCA I; assay type: biochemical; conditions: mean from 3 different assays, errors ±5–10%
T1 construct: made in house
Method: (§1) For each inhibitor, at least six traces of the initial 5–10% of the reaction were used for determining the initial velocity. The uncatalyzed rates were determined in the same manner and subtracted from the total observed rates. Stock solutions of the inhibitor (0.1 mM) were prepared in distilled–deionized water and dilutions up to 0.01 nM were done thereafter with the assay buffer. Inhibitor and enzyme solutions were preincubated together for 15 min at room temperature prior to the assay, allowing the formation of the E–I complex.

hCA II = molecular target: T2, hCA II (Homo sapiens, UniProt P00918); assay: stopped-flow CO2 hydrase assay, hCA II; assay type: biochemical; conditions: for Ki: stopped-flow CO2 hydrase assay, mean from 3 different assays, errors ±5–10%
T2 construct: made in house
Method: as §1

hCA IX = molecular target: T3, hCA IX (Homo sapiens, UniProt Q16790); assay: stopped-flow CO2 hydrase assay, hCA IX; assay type: biochemical; conditions: mean from 3 different assays, errors ±5–10%
T3 construct: made in house
Method: as §1

hCA XII = molecular target: T4, hCA XII (Homo sapiens, UniProt O43570); assay: stopped-flow CO2 hydrase assay, hCA XII; assay type: biochemical; conditions: mean from 3 different assays, errors ±5–10%
T4 construct: made in house
T4 sequence (O43570 25-354): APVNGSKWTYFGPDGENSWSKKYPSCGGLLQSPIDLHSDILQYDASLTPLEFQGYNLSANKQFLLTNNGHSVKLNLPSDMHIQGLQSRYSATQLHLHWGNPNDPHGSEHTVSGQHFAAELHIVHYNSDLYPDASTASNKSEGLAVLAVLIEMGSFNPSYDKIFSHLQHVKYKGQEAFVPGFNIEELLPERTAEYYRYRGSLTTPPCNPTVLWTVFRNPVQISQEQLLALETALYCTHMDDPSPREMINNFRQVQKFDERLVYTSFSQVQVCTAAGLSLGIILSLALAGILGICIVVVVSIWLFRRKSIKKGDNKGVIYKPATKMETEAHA
Method: as §1

T1 sequence (P00915 whole entry): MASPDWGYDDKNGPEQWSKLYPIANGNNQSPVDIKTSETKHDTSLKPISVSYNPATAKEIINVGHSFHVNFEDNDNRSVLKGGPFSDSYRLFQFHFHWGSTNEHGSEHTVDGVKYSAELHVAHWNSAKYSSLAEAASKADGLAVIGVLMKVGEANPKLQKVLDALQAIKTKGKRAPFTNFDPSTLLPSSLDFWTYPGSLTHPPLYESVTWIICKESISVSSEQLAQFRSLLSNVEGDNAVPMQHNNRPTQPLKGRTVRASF

SMILES	Ki (hCA I)	Ki (hCA II)	Ki (hCA IX)	Ki (hCA XII)	melting point	selectivity index (SI) towards hCA I (hCA II; selectivity for hCA II over hCA I)	selectivity index (SI) compared to hCA IX (hCA II; selectivity for hCA II over hCA IX)	selectivity index (SI) to hCA XII (hCA II; selectivity for hCA II over hCA XII)
Cn1c(C(=O)Nc2ccc(S(N)(=O)=O)cc2)cc2occc21 [Compound 7a, N-[4-(aminosulfonyl)phenyl]-4-methyl-4H-furo[3,2-b]pyrrole-5-carboxamide]	718 nM	8.4 nM	103 nM	6.9 nM	273 to 275 °C			
NS(=O)(=O)c1ccc(NC(=O)c2cc3occc3n2Cc2ccc(Cl)cc2)cc1 [Compound 7f, N-[4-(aminosulfonyl)phenyl]-4-(4-chlorobenzyl)-4H-furo[3,2-b]pyrrole-5-carboxamide]	878 nM	34.3 nM	187 nM	37.2 nM	237 to 238 °C			
CC1(C(=O)Nc2ccc(S(N)(=O)=O)cc2)Oc2ccccc2NC1=O (stereo not shown) [Compound 11, N-[4-(aminosulfonyl)phenyl]-2-methyl-3-oxo-3,4-dihydro-2H-1,4-benzoxazine-2-carboxamide]	70.6 nM	6.5 nM	260 nM	5.3 nM	269 to 270 °C			
NS(=O)(=O)c1ccc(NC(=O)c2cc3occc3n2Cc2ccccc2Cl)cc1 [Compound 7e, N-[4-(aminosulfonyl)phenyl]-4-(2-chlorobenzyl)-4H-furo[3,2-b]pyrrole-5-carboxamide]	858 nM	23.8 nM	239 nM	19.6 nM	239 to 241 °C			
NS(=O)(=O)c1ccc(NC(=O)c2cc3occc3n2Cc2ccccc2)cc1 [Compound 7c, N-[4-(aminosulfonyl)phenyl]-4-benzyl-4H-furo[3,2-b]pyrrole-5-carboxamide]	3560 nM	37.5 nM	276 nM	4.6 nM	240 to 241 °C			
NS(=O)(=O)c1ccc(NC(=O)c2cc3occc3n2Cc2ccccc2F)cc1 [Compound 7d, N-[4-(aminosulfonyl)phenyl]-4-(2-fluorobenzyl)-4H-furo[3,2-b]pyrrole-5-carboxamide]					240 to 242 °C			

Further lines, results first:

Ki (hCA I)	Ki (hCA II)	Ki (hCA IX)	Ki (hCA XII)	melting point	selectivity index (SI) towards hCA I (hCA II; selectivity for hCA II over hCA I)	selectivity index (SI) compared to hCA IX (hCA II; selectivity for hCA II over hCA IX)	selectivity index (SI) to hCA XII (hCA II; selectivity for hCA II over hCA XII)	SMILES
656 nM	8.7 nM	171 nM	8.2 nM	235 to 237 °C				NS(=O)(=O)c1ccc(NC(=O)c2cc3sccc3n2Cc2ccccc2F)cc1 [Compound 8d, N-[4-(aminosulfonyl)phenyl]-4-(2-fluorobenzyl)-4H-thieno[3,2-b]pyrrole-5-carboxamide]
918 nM	59.4 nM	253 nM	40.2 nM	294 to 295 °C				COc1ccc(-c2nc3s/c(=C\c4ccc(-c5ccc(S(N)(=O)=O)cc5)o4)c(=O)n3n2)cc1OC [Compound 17b, 4-(5-{(Z)-[2-(3,4-Dimethoxyphenyl)-6-oxo[1,3]thiazolo[3,2 b][1,2,4]triazol-5(6H)-ylidene]methyl} -2-furyl)benzenesulfonamide]
71.2 nM	7.4 nM	155 nM	6.6 nM	208 to 209 °C				NS(=O)(=O)c1ccc(CCNC(=O)C2=C(c3ccccc3)SCCO2)cc1 [Compound 14b, N-{2-[4-(aminosulfonyl)phenyl]ethyl}-3-phenyl-5,6-dihydro-1,4-oxathiine-2-carboxamide]
270 nM	6.8 nM	251 nM	5.1 nM	248 to 249 °C				CCn1c(C(=O)Nc2ccc(S(N)(=O)=O)cc2)cc2sccc21 [Compound 8b, N-[4-(aminosulfonyl)phenyl]-4-ethyl-4H-thieno[3,2-b]pyrrole-5-carboxamide]
665 nM	8.8 nM	66.6 nM	30.7 nM	276 to 278 °C	75.5	7.6	3.5	Cn1c(C(=O)Nc2ccc(S(N)(=O)=O)cc2)cc2sccc21 [Compound 8a, N-[4-(aminosulfonyl)phenyl]-4-methyl-4H-thieno[3,2-b]pyrrole-5-carboxamide]
56.5 nM	6.7 nM	281 nM	6.1 nM					NS(=O)(=O)c1ccc(NC(=O)C2=C(c3ccccc3)SCCO2)cc1 [Compound 14a, N-[4-(aminosulfonyl)phenyl]-3-phenyl-5,6-dihydro-1,4-oxathiine-2-carboxamide]
2920 nM	44.7 nM	320 nM	7.6 nM	312 to 315 °C				NS(=O)(=O)c1ccc(-c2ccc(/C=c3\sc4nc(-c5cccc(Cl)c5)nn4c3=O)o2)cc1 [Compound 17a, 4-(5-{(Z)-[2-(3-chlorophenyl)-6-oxo[1,3]thiazolo[3,2-b][1,2,4]triazol-5(6H)-ylidene]methyl}-2-furyl)enzenesulfonamide]
400 nM	8.9 nM	140 nM	7.8 nM	255 to 256 °C				NS(=O)(=O)c1ccc(NC(=O)c2cc3sccc3n2Cc2ccccc2)cc1 [Compound 8c, N-[4-(aminosulfonyl)phenyl]-4-benzyl-4H-thieno[3,2-b]pyrrole-5-carboxamide]
699 nM	68.1 nM	81.4 nM	8.9 nM	219 to 220 °C				NS(=O)(=O)c1ccc(NC(=O)c2cc3sccc3n2Cc2ccc(Cl)cc2)cc1 [Compound 8f, N-[4-(aminosulfonyl)phenyl]-4-(4-chlorobenzyl)-4H-thieno[3,2-b]pyrrole-5-carboxamide]

From PMC8398262, “New Sulfanilamide Derivatives Incorporating Heterocyclic Carboxamide Moieties as Carbonic Anhydrase Inhibitors” (Pharmaceuticals, 2021)
